Activity calls are given as the source filed them. No cut-off for these calls is given here.
Key:
HeLa [1] = assay: Cytotoxicity against human HeLa cells after 72 hrs by MTT assay; type: functional, cell-based
HeLa [2] = assay: Induction of apoptosis in human HeLa cells assessed as increase in actin stress fiber formation across cell body after 12 hrs by phase contrast microscopic analysis; type: functional, cell-based; details: TDE = time-dependent effect
HeLa [3] = assay: Induction of apoptosis in human HeLa cells assessed as disruption of tubulin cytoskeleton at 14 to 21 uM by phase contrast microscopic analysis; type: functional, cell-based
HeLa [4] = assay: Induction of apoptosis in human HeLa cells assessed as reduction in expression of Myt1 after 12 hrs by immunoblot assay; type: functional, cell-based
HeLa [5] = assay: Induction of apoptosis in human HeLa cells assessed as increase in cytochrome C in cytoplasm at 21 uM after 20 hrs by Western blotting; type: functional, cell-based
HeLa [6] = assay: Induction of apoptosis in human HeLa cells assessed as increase in PARP cleavage at 21 uM after 12 to 28 hrs by Western blotting; type: functional, cell-based
MDA-MB-435 = assay: Growth inhibition in human MDA-MB-435 cells after 72 hrs by MTT assay; type: functional, cell-based
HeLa [7] = assay: Growth inhibition in human HeLa cells after 72 hrs by MTT assay; type: functional, cell-based
HeLa [8] = assay: Induction of apoptosis in human HeLa cells assessed as increase in cleavage fragments of p17 and p12 at 21 uM after 12 to 28 hrs by Western blotting; type: functional, cell-based
A549 = assay: Growth inhibition in human A549 cells after 72 hrs by MTT assay; type: functional, cell-based
MDA-MB-231 = assay: Growth inhibition in human MDA-MB-231 cells after 72 hrs by MTT assay; type: functional, cell-based
HeLa [9] = assay: Induction of apoptosis in human HeLa cells assessed as increase in production of cyclin B1 at 14 to 21 uM after 12 hrs by immunoblot assay; type: functional, cell-based
HeLa [10] = assay: Induction of apoptosis in human HeLa cells assessed as reduction in expression of WEE1 at 14 to 21 uM by immunoblot assay; type: functional, cell-based; details: TDE = time-dependent effect
HeLa [11] = assay: Induction of apoptosis in human HeLa cells assessed as increase of dead cells at 12 uM using propidium iodide staining by flow cytometry; type: functional, cell-based; details: TDE = time-dependent effect
HeLa [12] = assay: Induction of apoptosis in human HeLa cells assessed as increase in actin stress fiber formation across cell body at 14 to 21 uM by phase contrast microscopic analysis; type: functional, cell-based; details: TDE = time-dependent effect
HeLa [13] = assay: Induction of apoptosis in human HeLa cells assessed as reduction in expression of GADD45alpha after 12 hrs by immunoblot assay; type: functional, cell-based
HeLa [14] = assay: Induction of apoptosis in human HeLa cells assessed as reduction in expression of chk1 after 12 hrs by immunoblot assay; type: functional, cell-based
HeLa [15] = assay: Cell cycle arrest in human HeLa cells assessed as accumulation at sub-G1 phase at 21 uM after 36 hrs using propidium iodide staining by flow cytometry relative to control; type: functional
HeLa [16] = assay: Induction of apoptosis in human HeLa cells assessed as reduction in expression of p34 at 14 to 21 uM by immunoblot assay; type: functional, cell-based; details: TDE = time-dependent effect
HeLa [17] = assay: Cell cycle arrest in human HeLa cells assessed as accumulation at G2/M phase at 14 uM after 36 hrs using propidium iodide staining by flow cytometry relative to control; type: functional
HeLa [18] = assay: Induction of apoptosis in human HeLa cells assessed as cell death in presence of 25 uM of […] z-VAD-fmk; type: functional, cell-based
MCF7 = assay: Growth inhibition in human MCF7 cells after 72 hrs by MTT assay; type: functional, cell-based
HeLa [19] = assay: Induction of apoptosis in human HeLa cells assessed as reduction in expression of p34 after 12 hrs by immunoblot assay; type: functional, cell-based
HeLa [20] = assay: Induction of apoptosis in human HeLa cells assessed as increase of dead cells after 24 hrs using propidium iodide staining by flow cytometry; type: functional, cell-based
[21] = target: c-Jun N-terminal kinase, JNK (Homo sapiens) (UniProt P45983+P53779+P45984); assay: Induction of JNK phosphorylation at Thr183/Tyr185 in human HeLa cells at 21 uM after 30 mins by Western blotting; type: cell-based
HeLa [22] = assay: Induction of apoptosis in human HeLa cells assessed as reduction in expression of chk2 after 12 hrs by immunoblot assay; type: functional, cell-based
HeLa [23] = assay: Induction of apoptosis in human HeLa cells assessed as morphological changes at 14 to 21 uM after 9 hrs by phase contrast microscopic analysis; type: functional, cell-based
HeLa [24] = assay: Induction of apoptosis in human HeLa cells assessed as increase of dead cells at 11 uM using propidium iodide staining by flow cytometry; type: functional, cell-based; details: TDE = time-dependent effect
AGS = assay: Growth inhibition in human AGS cells after 72 hrs by MTT assay; type: functional, cell-based
HeLa [25] = assay: Induction of apoptosis in human HeLa cells assessed cell death up to 20 uM after 48 hrs using propidium iodide staining by flow cytometry in presence of JNK inhibitor 2 treated 1 hr before compound challenge; type: functional, cell-based
KB = assay: Cytotoxicity against human KB cells by MTT assay; type: functional, cell-based
OVCAR-3 = assay: Growth inhibition in human OVCAR-3 cells after 72 hrs by MTT assay; type: functional, cell-based
DU-145 = assay: Growth inhibition in human DU145 cells after 72 hrs by MTT assay; type: functional, cell-based
HeLa [26] = assay: Induction of apoptosis in human HeLa cells assessed as reduction in expression of WEE1 after 12 hrs by immunoblot assay; type: functional, cell-based
HT-29 = assay: Growth inhibition in human HT-29 cells after 72 hrs by MTT assay; type: functional, cell-based
HeLa [27] = assay: Induction of apoptosis in human HeLa cells assessed as reduction in expression of chk1 at 14 to 21 uM by immunoblot assay; type: functional, cell-based; details: TDE = time-dependent effect
HeLa [28] = assay: Cell cycle arrest in human HeLa cells assessed as accumulation at G2/M phase at 21 uM after 12 hrs using propidium iodide staining by flow cytometry relative to control; type: functional
HeLa [29] = assay: Induction of apoptosis in human HeLa cells assessed as reduction in expression of Cdc2 after 12 hrs by immunoblot assay; type: functional, cell-based
[30] = target: MAP kinase p38 (Homo sapiens) (UniProt O15264+Q15759+Q16539+P53778); assay: Induction of p38 phosphorylation at Thr180/Tyr182 in human HeLa cells assessed at 21 uM after 30 mins by Western blotting; type: cell-based
HeLa [31] = assay: Induction of apoptosis in human HeLa cells assessed as reduction in expression of GADD45alpha at 14 to 21 uM by immunoblot assay; type: functional, cell-based; details: TDE = time-dependent effect
HeLa [32] = assay: Induction of apoptosis in human HeLa cells assessed as reduction in expression of chk2 at 14 to 21 uM by immunoblot assay; type: functional, cell-based; details: TDE = time-dependent effect
HeLa [33] = assay: Induction of apoptosis in human HeLa cells assessed as increase in production of p21 at 14 to 21 uM after 12 hrs by immunoblot assay; type: functional, cell-based
HeLa [34] = assay: Induction of p38 expression in human HeLa cells at 21 uM after 8 hrs by Western blotting; type: functional, cell-based
HeLa [35] = assay: Cell cycle arrest in human HeLa cells assessed as accumulation at G2/M phase at 14 uM after 12 hrs using propidium iodide staining by flow cytometry relative to control; type: functional
HeLa [36] = assay: Cell cycle arrest in human HeLa cells assessed as accumulation at G2/M phase at 21 uM after 36 hrs using propidium iodide staining by flow cytometry relative to control; type: functional
HeLa [37] = assay: Induction of JNK expression in human HeLa cells at 21 uM after 8 hrs by Western blotting; type: functional, cell-based
HeLa [38] = assay: Cell cycle arrest in human HeLa cells assessed as accumulation at sub-G1 phase at 14 uM after 36 hrs using propidium iodide staining by flow cytometry relative to control; type: functional
U2OS = assay: Growth inhibition in human U2OS cells after 72 hrs by MTT assay; type: functional, cell-based
HeLa [39] = assay: Induction of apoptosis in human HeLa cells assessed cell death up to 20 uM after 48 hrs using propidium iodide staining by flow cytometry in presence of SB-203580 treated 1 hr before compound challenge; type: functional, cell-based
HeLa [40] = assay: Induction of apoptosis in human HeLa cells assessed as increase in caspase-3 cleavage at 21 uM after 12 to 28 hrs by Western blotting in presence of z-VAD-fmk; type: functional, cell-based
HeLa [41] = assay: Induction of apoptosis in human HeLa cells assessed as reduction in expression of Myt1 at 14 to 21 uM by immunoblot assay; type: functional, cell-based; details: TDE = time-dependent effect
HeLa [42] = assay: Induction of apoptosis in human HeLa cells assessed as reduction in expression of Cdc2 at 14 to 21 uM by immunoblot assay; type: functional, cell-based; details: TDE = time-dependent effect

CC(=O)O[C@H]1C=CC(=O)O[C@H]1[C@@H]1[C@H](C)[C@H]2C=CC=C[C@@H]1O2 [MYCOEPOXYDIENE]
IC50 (HeLa [1]): 16.8 µM
Activity (HeLa [2]): tde
Activity (HeLa [3]): Dose-dependent effect
Activity (HeLa [4]): Dose-dependent effect
Activity (HeLa [5]): Active
Activity (HeLa [6]): Active
growth inhibition (GI) (MDA-MB-435): Active
growth inhibition (GI) (HeLa [7]): Active
Activity (HeLa [8]): Active
growth inhibition (GI) (A549): Active
growth inhibition (GI) (MDA-MB-231): Active
Activity (HeLa [9]): Active
Activity (HeLa [10]): tde
Activity (HeLa [11]): tde
Activity (HeLa [12]): tde
Activity (HeLa [13]): Dose-dependent effect
Activity (HeLa [14]): Dose-dependent effect
Activity (HeLa [15]): 23.3%
Activity (HeLa [16]): tde
Activity (HeLa [17]): 31.4%
Activity (HeLa [18]): inactive
growth inhibition (GI) (MCF7): Active
Activity (HeLa [19]): Dose-dependent effect
Activity (HeLa [20]): Dose-dependent effect
Activity [21]: Active
Activity (HeLa [22]): Dose-dependent effect
Activity (HeLa [23]): Active
Activity (HeLa [24]): tde
growth inhibition (GI) (AGS): Active
Activity (HeLa [25]): Active
IC50 (KB): < 21.5 µM
growth inhibition (GI) (OVCAR-3): Active
growth inhibition (GI) (DU-145): Active
Activity (HeLa [26]): Dose-dependent effect
growth inhibition (GI) (HT-29): Active
Activity (HeLa [27]): tde
Activity (HeLa [28]): 47.5%
Activity (HeLa [29]): Dose-dependent effect
Activity [30]: Active
Activity (HeLa [31]): tde
Activity (HeLa [32]): tde
Activity (HeLa [33]): Active
Activity (HeLa [34]): inactive
Activity (HeLa [35]): 40.9%
Activity (HeLa [36]): 31.3%
Activity (HeLa [37]): inactive
Activity (HeLa [38]): 4.8%
growth inhibition (GI) (U2OS): Active
Activity (HeLa [39]): Active
Activity (HeLa [40]): inactive
Activity (HeLa [41]): tde
Activity (HeLa [42]): tde

Reference: ChEMBL document CHEMBL1287690, “Mycoepoxydiene, a fungal polyketide, induces cell cycle arrest at the G2/M phase and apoptosis in HeLa cells” (Bioorg Med Chem Lett, 2010)
